Earlier results in patent publication US20050048543A1 (priority 2003, published 2005).

Tests used:
[1] = system: patients with mild to moderate AD; settings: galantamine therapy in patients

Row | SMILES | most common side effects [1] | response to treatment in presence of the ApoE4 polymorphism (AD patients)
1 | COc1ccc2c3c1O[C@H]1C[C@@H](O)C=C[C@@]31CCN(C)C2 [galantamine] | nausea, vomiting, diarrhea, dizziness and anorexia | –
2 | Nc1c2c(nc3ccccc13)CCCC2 [tacrine] | – | reduced response to treatment
